Experiments:
CypA-CA interaction = details: CsA 2.5 μM, CRFK; DEBIO-025 in Jurkat
Method: All chemicals were obtained from Sigma unless otherwise noted. Puromycin was used at 1 μM. […] Arsenic trioxide (As2O3) was made at 100 mM in 1N sodium hydroxide (NaOH) and then further diluted to 1 mM in phosphate buffered saline (PBS). pH was adjusted to 7.5 with hydrochloric acid and stored at 4° C.

T5-mediated restriction = test: Disruption of T5Cyp-mediated HIV-1 restriction by arsenic trioxide in CRFK cells; type: cell-based; details: increasing amounts
Method: This drug was previously shown to inhibit T5-mediated restriction (Sebastian et al., 2006).
Puromycin was used at 1 μM.

Compound | effect on HIV-1 restriction by AoT5Cyp and hT5Cyp (CypA-CA interaction) | effect on AoT5Cyp and hT5Cyp restriction activity (T5-mediated restriction)
C/C=C/C[C@@H](C)[C@@H](O)[C@H]1C(=O)N[C@@H](CC)C(=O)N(C)[C@H](C)C(=O)N(CC)[C@@H](C(C)C)C(=O)N[C@@H](C(C)C)C(=O)N(C)[C@@H](CC(C)C)C(=O)N[C@@H](C)C(=O)N[C@H](C)C(=O)N(C)[C@@H](CC(C)C)C(=O)N(C)[C@@H](CC(C)C)C(=O)N(C)[C@@H](C(C)C)C(=O)N1C [DEBIO-025] | Equivalent results | –
arsenic trioxide [As2O3] | – | blocked to the same extent
